From US20260207590A1, “CTPS1 INHIBITORS FOR USE IN THE TREATMENT OF CTPS2 DEFICIENT CANCER” (STEP PHARMA S.A.S., priority 2022, published 2026)

Experiments:
CTPS1 = biological target: T1, CTPS1 (Homo sapiens, UniProt P17812); details: see e.g. WO2020083975 (CTPS-IA), WO2020245664 (CTPS-IB); cited from earlier work
T1 sequence (P17812 1-591): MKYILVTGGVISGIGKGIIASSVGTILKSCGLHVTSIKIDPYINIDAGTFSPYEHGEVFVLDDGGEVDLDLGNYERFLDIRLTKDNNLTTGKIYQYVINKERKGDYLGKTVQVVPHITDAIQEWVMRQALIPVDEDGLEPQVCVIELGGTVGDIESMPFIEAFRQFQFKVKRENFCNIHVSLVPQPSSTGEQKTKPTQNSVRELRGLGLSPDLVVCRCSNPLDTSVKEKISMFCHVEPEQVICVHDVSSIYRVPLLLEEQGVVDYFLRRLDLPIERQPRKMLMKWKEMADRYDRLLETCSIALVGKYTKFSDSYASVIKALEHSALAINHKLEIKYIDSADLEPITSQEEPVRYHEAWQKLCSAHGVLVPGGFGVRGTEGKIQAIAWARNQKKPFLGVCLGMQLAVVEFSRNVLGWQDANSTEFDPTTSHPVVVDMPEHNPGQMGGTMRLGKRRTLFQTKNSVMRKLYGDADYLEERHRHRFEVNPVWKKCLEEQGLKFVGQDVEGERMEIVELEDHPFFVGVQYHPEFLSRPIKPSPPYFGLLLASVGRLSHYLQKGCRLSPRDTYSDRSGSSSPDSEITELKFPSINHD

human cancer cell lines = assay: Human cancer cell line viability with CTPS-IA (CellTiter-Glo, 72 hours), IC50 correlated with CTPS1/CTPS2 RNA expression; type: cell-based; details: all three cell line sets (19, 60, 103 lines); P-value>0.05 in all cases
Description: CTPS2 expression levels were also found to correlate with IC50 values for CTPS-IA. […] A nonlinear regression model was used to calculate half maximal inhibitory concentration (IC50). CTPS1 and CTPS2 expression levels, measured by RNA abundance, were either generated by RNA sequencing or retrieved from the publicly available Cancer Cell Line Encyclopedia. In a set of 19 human cancer cell lines derived from haematological cancers, lower CTPS2 expression was associated with increased sensitivity to CTPS-IA (Pearson correlation r=0.50, P-value=0.0007). In a set of 60 human cancer cell lines covering common cancer types, lower CTPS2 expression was associated with increased sensitivity to CTPS-IA (Pearson correlation r=0.24, P-value=<0.0001). In an independent set of 103 human cancer cell lines covering common cancer types, lower CTPS2 expression was associated with increased sensitivity to CTPS-IA (Pearson correlation r=0.14, P-value=<0.0001).

| SMILES | CTPS1 inhibition and selectivity (in words) (CTPS1) | Association of the level of CTPS1 expression with sensitivity to CTPS-IA (human cancer cell lines) |
| --- | --- | --- |
| CCOc1cncc(-c2ccc(NC(=O)C3(c4ccnc(NS(=O)(=O)C5CC5)n4)CCOCC3)nc2)n1 [CTPS-IA, 4-(2-(cyclopropanesulfonamido)pyrimidin-4-yl)-N-(5-(6-ethoxypyrazin-2-yl)pyridin-2-yl)tetrahydro-2H-pyran-4-carboxamide] | potent and selective inhibitor of CTPS1 | not associated with sensitivity to CTPS-IA |
| CCOc1cncc(-c2ccc(NC(=O)C3(c4ccnc(NS(=O)(=O)CC)n4)CCOCC3)nc2)n1 [CTPS-IB, N-(5-(6-ethoxypyrazin-2-yl)pyridin-2-yl)-4-(2-(ethylsulfonamido)pyrimidin-4-yl)tetrahydro-2H-pyran-4-carboxamide] | potent and selective inhibitor of CTPS1 | – |
